Experimental data as given in a melting point compilation (Tetko et al.).

SMILES | melting point
NC(=O)C(N)C(N)=O | 171 to 173 °C
Cc1nnc2[nH]nc(N)c2c1C | 264 to 266 °C
Brc1cccc(-c2nnco2)c1 | 74 to 76 °C
Cc1sc(N)nc1-c1ccc(F)cc1 | 122 to 124 °C
COC(=O)c1sccc1N=[N+]=[N-] | 69 to 71 °C
Cc1cc(S)nc(C(C)C)n1 | 160 to 164 °C
Cc1nnc(S)n1CC(N)=O | 232 to 234 °C
Cc1nc2c(cnn2C)c(=O)[nH]1 | 274 to 276 °C
Cc1nn(C)c(C)c1C(CC(=O)O)C(F)(F)F (stereo not given) | 130 to 132 °C
CCNC1=NCC(c2ccccc2)S1 (stereo not given) | 99 to 101 °C
NC(=S)NCc1ccc(F)cc1 | 119 to 121 °C
NNc1nc(-c2cccnc2)no1 | 169 to 171 °C
Nc1ncnc(Cl)c1C=O | 159 to 161 °C
c1ccc(Nc2ccccn2)cc1 | 78 to 82 °C
CC(=O)N1CCC(C(=O)O)(c2ccccc2)CC1 | 207 to 209 °C
O=Cc1ccn(-c2ccccc2)n1 | 49 to 51 °C
COc1cc2c(C#N)c(OC)nc(N)c2c(N)n1 | 249 to 251 °C
Cc1ccccc1-c1nnc(S)o1 | 188 to 190 °C
CCN1CCCC1CN1CC(C(=O)O)CC1=O (stereo not given) | 166 to 168 °C
O=C1CNCCN1Cc1ccc(Cl)cc1 | 83 to 85 °C

SMILES | melting point
Clc1cc(C2CC2)nc2ncnn12 | 99 to 101 °C
Fc1c(Cl)ccc2c(Cl)ccnc12 | 129 to 131 °C
O=C(O)Cc1cc(Cl)c2c(c1)OCCO2 | 176 to 178 °C
Nc1nc(CN2CCN(c3ccc(F)cc3)CC2)cs1 | 194 to 196 °C
Brc1ccc(Cc2nnn[nH]2)cc1 | 172 to 174 °C
[N-]=[N+]=Nc1ccc(Cl)c(Cl)c1 | 32 to 34 °C
Nc1cccc(-c2c3c(=O)[nH][nH]c(=O)c3c3n2CCC3)c1 | 331 to 333 °C
Cc1cccc(NC(=O)CCl)c1 | 128 to 130 °C
CC(C)CCc1cc(N)on1 | 61 to 63 °C
O=C(CCl)NCCc1ccsc1 | 75 to 77 °C
CCOC(=O)c1cc2c(nc1N)CCN(C)C2 | 146 to 148 °C
CSc1ccc(CNc2ccc3[nH]c(C)nc3c2)cc1 | 172 to 174 °C
Cc1ccc(-c2cc(N)nc(-c3ccccc3)c2)cc1 | 110 to 112 °C
CC(Nc1ccc(Cl)nn1)c1ccccc1 (stereo not given) | 159 to 161 °C
Sc1nc(/C=C/c2ccccc2)n[nH]1 | 277 to 279 °C
Cc1cc(Cl)nnc1C | 45 to 47 °C
CC(C)(C)n1cc(C#N)cc1N | 105 to 107 °C
CC(C)(C)c1ccc(C(O)CN)cc1 (stereo not given) | 125 to 127 °C
Cn1cc(CNc2ccccc2C(F)(F)F)cn1 | 53 to 55 °C
O=C(CCl)Nc1ccc(O)cc1 | 145 to 147 °C

SMILES | melting point
NS(=O)(=O)c1ccc([N+](=O)[O-])s1 | 139 to 141 °C
O=C(O)CNC(=O)NCc1ccco1 | 159 to 161 °C
Nc1cccc(Cn2cnnc2)c1 | 139 to 141 °C
O=[N+]([O-])c1cnc(Cl)c(Br)c1 | 54 to 58 °C
NC(=O)C1CCCN1C(=O)NC(=O)CCl (stereo not given) | 126 to 128 °C
Cc1onc(CC(=O)O)c1C#N | 59 to 61 °C
CC(C)(C)Nc1nccs1 | 83 to 85 °C
O=C1COc2ncc(Br)cc2N1 | 256 to 258 °C
N#Cc1cc([N+](=O)[O-])ccc1O | 196 to 198 °C
N#CCCCN1CCOCC1 | 67 to 69 °C
CC(C)(C)OC(=O)NCC1CCCCC1N (stereo not given) | 61 to 63 °C
CC(C)(C)n1cc(C(=O)O)c(-c2ccc(F)cc2F)n1 | 145 to 147 °C
N#CCC(=O)NC1CC1 | 87 to 90 °C
O=S(=O)(Cl)c1c[nH]cn1 | 164 to 166 °C
CC(NS(C)(=O)=O)C(=O)NN (stereo not given) | 117 to 119 °C
CN1CCC/C1=N/S(=O)(=O)c1ccc(N)cc1 | 172 to 174 °C
O=Cc1cn2cccc(F)c2n1 | 163 to 165 °C
O=C(CBr)c1ccc(S(=O)(=O)N2CCCCC2)cc1 | 108 to 110 °C

Further lines, results first:

melting point | SMILES
190 to 192 °C | Cc1cnc(NC(=O)c2ccc(Br)o2)s1
172 to 174 °C | NC(=O)c1c(F)cc(Br)cc1F
157 to 159 °C | COC(=O)c1ccoc1CSc1ccccc1C(=O)O
185 to 187 °C | O=C(O)CCc1nc2c(F)cccc2[nH]1
144 to 146 °C | O=C(O)c1cn(-c2ccc(Br)cc2Cl)nn1
149 to 151 °C | N#Cc1cnc(C(=O)O)c(Cl)c1
139 to 141 °C | O=C(O)c1cccc(OCc2ccccc2OC(F)F)c1
259 to 261 °C | NS(=O)(=O)c1ccc(NC(=O)C(=O)O)cc1
85 to 87 °C | N#Cc1ccc(OCCO)cc1
169 to 171 °C | CC1CCCC(C)N1C(=O)c1cc(Cl)ccc1N (stereo not given)
119 to 121 °C | CCOC(=O)c1cc(Br)cc(S(N)(=O)=O)c1
212 to 214 °C | Cc1ccc(C(=O)O)cc1S(=O)(=O)NCC#N
167 to 169 °C | N#Cc1ccc(NCC(=O)O)nc1
249 to 251 °C | CS(=O)(=O)Cc1nc2ccccc2n1CC(=O)O
184 to 186 °C | Nc1ccc(N2CCCC2=O)c(Cl)c1
197 to 199 °C | Cc1oc(C(N)=O)cc1C(=O)CCl
153 to 155 °C | Cc1ccc(C(=O)O)c(Cl)c1C
107 to 109 °C | NNC(=O)Nc1cccc(Cl)c1
31 to 33 °C | CCCOc1c(Cl)cc(C#N)cc1OC
194 to 196 °C | COc1ccc(-c2cc(C(=O)O)no2)c(F)c1
59 to 61 °C | Nc1ccc2c(c1)N(CCO)CC2
157 to 159 °C | O=C(CCl)NC(=O)c1ccccc1

melting point | SMILES
270 to 272 °C | Cn1cc(Nc2ccc(=O)n(C)c2)ccc1=O
129 to 131 °C | O=C(O)c1cc[nH]c1
166 to 170 °C | COc1cc(C=O)cc(Cl)c1OCC(N)=O
112 to 114 °C | Cc1cc(C=O)c(C)n1-c1ccc2c(c1)OCCO2
79 to 81 °C | CC(C)CC(=O)NCCc1ccc(S(=O)(=O)Cl)s1
174 to 176 °C | O=C(O)CCC1Cc2ccccc2NC1=O (stereo not given)
83 to 85 °C | COCc1ccc(CNC(=O)CCl)cc1
195 to 197 °C | COc1ncc(F)c(O)n1
101 to 104 °C | CC(=O)C(Cl)C(=O)Nc1ccccc1 (stereo not given)
251 to 253 °C | O=C(O)c1ccc(-c2ccc([N+](=O)[O-])cc2Cl)o1
143 to 145 °C | CN1CCC(=O)Nc2cc(F)ccc21
130 to 132 °C | CN(C)S(=O)(=O)c1ccc2c(c1)NCCC2
103 to 105 °C | CC(C)(CO)Nc1ccc(Br)cn1
179 to 181 °C | COc1ccccc1C1(C)NC(=O)N(CC(=O)O)C1=O (stereo not given)
171 to 173 °C | O=C(Nc1cccc(O)c1)c1ccccc1
78 to 80 °C | COc1ccc(O)cc1C(C)=O
163 to 165 °C | CN(C)CCc1ccc(C(=O)O)cc1
200 to 202 °C | O=C(O)c1cnc(-c2ccccc2Cl)s1
123 to 125 °C | O=C(O)CCC(=O)c1ccc2c(c1)CCC2
72 to 74 °C | CCOC(=O)Cn1[nH]cc(C(=O)OCC)c1=N
136 to 138 °C | Cc1cc(C)c(C(=O)CCl)c(C)c1C(=O)CCl
72 to 74 °C | CC(=O)c1ccc(OC2CCOCC2)cc1

melting point | SMILES
104 to 106 °C | CC(C)(C)OC(=O)NCc1cc[nH]n1
201 to 203 °C | COc1ccc(N2CC(C(=O)O)CC2=O)cc1OC (stereo not given)
327 to 329 °C | Cn1[nH]c(=O)c2c(=O)cc[nH]c21
123 to 125 °C | Cc1cc(OCC(=O)O)no1
219 to 221 °C | Cc1nc(O)c2cc(Br)ccc2n1
206 to 208 °C | Cc1cc(=O)oc2cc(OCC(=O)O)ccc12
211 to 213 °C | Cc1ccc(C)c(C(C)Nc2ccc(C(=O)O)cc2C)c1 (stereo not given)
119 to 121 °C | COC(=O)c1ccc(S(=O)(=O)Cl)cn1
169 to 171 °C | Cc1ccc(C#N)c(N)n1
149 to 151 °C | COc1cc(N)c(O)cc1[N+](=O)[O-]
178 to 180 °C | NC(=O)Cc1ccccc1Cl
172 to 174 °C | COc1ccc(N(C)S(=O)(=O)c2cccc(C(=O)O)c2)cc1
179 to 181 °C | O=C(O)c1ccc(F)cc1-c1ccc(Cl)c(Cl)c1
191 to 193 °C | O=C(O)Cc1coc(-c2ccc(Cl)cc2)n1
158 to 160 °C | O=C(O)C1CCN(c2ccc(Cl)cc2)C1=O (stereo not given)
146 to 148 °C | CCc1ccc(C(=O)O)cc1N
140 to 142 °C | NNC(=O)c1cccc(S(=O)(=O)N2CCOCC2)c1
211 to 213 °C | COC(=O)C1=NN(c2cccc(C(=O)O)c2)C(=O)C1CCO (stereo not given)
148 to 150 °C | COc1cc(Cl)c(Cl)cc1C(=O)O
239 to 241 °C | CN(C)C(C)(C(=O)O)c1ccc(Cl)cc1 (stereo not given)
134 to 136 °C | Cn1nc(C(=O)NN)c2ccccc2c1=O
199 to 201 °C | NC(=O)c1cc(N)nc2ccccc12

melting point | SMILES
123 to 125 °C | O=Cc1ccccc1OCc1cn2ccccc2n1
70 to 72 °C | N#Cc1ccccc1OCc1ccccc1
110 to 112 °C | O=C(CCl)NC(=O)Nc1ccc2c(c1)OCCCO2
174 to 176 °C | CN(C)S(=O)(=O)c1ccc(N2CCOCC2)c(N)c1
188 to 190 °C | Cc1nc2ccccn2c1C(=O)NN
51 to 55 °C | COc1ccc(Cl)cc1CC#N
104 to 106 °C | O=C1C(Br)CCN1c1cccc([N+](=O)[O-])c1 (stereo not given)
180 to 182 °C | Cc1ccc2oc(C(=O)O)c(C)c2c1
91 to 93 °C | CCOC(=O)C(=O)CC(=O)c1ccccc1OCC
174 to 176 °C | CCOC(=O)/C(C#N)=C\Nc1cc(F)cc(F)c1
41 to 43 °C | COC(=O)c1cc(F)ccc1CBr
210 to 212 °C | COC(=O)c1ccc(C(=O)O)cn1
87 to 89 °C | CC(c1ccco1)N(C(=O)CCl)c1ccccn1 (stereo not given)
138 to 140 °C | Cn1ccnc1C(=O)c1ccncc1
144 to 146 °C | O=C(O)C1(c2cccc(C(F)(F)F)c2)CCCCC1
60 to 62 °C | CC(C)(C)OC(=O)N1CCCc2cccc(O)c21
120 to 122 °C | CCN(CC)C(=O)c1ccc(O)cc1
209 to 211 °C | COc1ccc2cc(C(=O)O)c(C)nc2c1
125 to 127 °C | Nc1cccc(C(=O)N2CCc3ccccc32)c1
105 to 115 °C | O=C(O)c1cc(S(=O)(=O)Cl)ccc1Cl
175 to 177 °C | O=C(O)Cc1csc(-c2ccc3c(c2)OCO3)n1
